Our source for the TGI values is PubChem BioAssay (NCI).

Each structure is given as a SMILES string.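 Each compound was tested at five concentrations against cells in 96-well plates for 48 hours. TGI marks complete inhibition of growth.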 A value given as a limit tells only on which side of the number the result lay.

Some test systems named below: UO-31 renal; OVCAR-4 ovarian; ACHN renal; HCC-2998 colon; HL-60(TB) leukemia; 786-0 renal; HOP-62 NSCLC; RXF 393 renal; SN12C renal; DU-145 prostate.
Common to all, as to assay: NCI-60 cell line screen, 48 h

Turning to `N#CC(C#N)=C1C(C#N)=C(N)NC12OCCO2`, the TGI in the assay with UO-31 renal, in the assay with OVCAR-4 ovarian, in the assay with ACHN renal, in the assay on HCC-2998 colon, with HL-60(TB) leukemia and in the assay on 786-0 renal was above 100 µM throughout. The TGI in the assay with HOP-62 NSCLC, in the assay with RXF 393 renal, in the assay with SN12C renal and with DU-145 prostate was above 100 µM throughout.

On to `O=C1C=CC(=O)C(CNc2ccc(C(=O)OC34CC5CC(CC(C5)C3)C4)cc2)=C1`, for which the TGI was 16 µM with UO-31 renal; 12 µM in the assay with OVCAR-4 ovarian; 19.1 µM in the assay with ACHN renal; 32.4 µM in the assay on HCC-2998 colon; above 21.6 µM with HL-60(TB) leukemia; 23 µM in the assay on 786-0 renal. Also, the TGI in the assay on HOP-62 NSCLC stood at 17.1 µM; with RXF 393 renal it was 4.51 µM; in the assay on SN12C renal, 17.8 µM; with DU-145 prostate, 47.6 µM.

As for `CC(=O)/C(=C/n1c(=S)[nH]c2ccccc21)C(=O)Nc1ccccc1C`, the TGI with UO-31 renal, in the assay on OVCAR-4 ovarian, in the assay with ACHN renal, in the assay on HCC-2998 colon, in the assay with HL-60(TB) leukemia and in the assay on 786-0 renal was above 100 µM each time. Besides, the TGI with HOP-62 NSCLC, in the assay on RXF 393 renal, in the assay with SN12C renal and in the assay on DU-145 prostate was above 100 µM throughout.

For `C[C@@H](O)C(=O)N1[C@@H]2CC3CC[C@]2(CS1(=O)=O)C3(C)C`, the TGI in the assay on UO-31 renal, in the assay on OVCAR-4 ovarian, in the assay on ACHN renal, in the assay on HCC-2998 colon, in the assay on HL-60(TB) leukemia and in the assay on 786-0 renal was above 100 µM in each case. The TGI with HOP-62 NSCLC, in the assay on RXF 393 renal, with SN12C renal and in the assay on DU-145 prostate was above 100 µM throughout.

`Cc1ccc(C2=NOC(=O)[C@@H]3CCCC[C@@H]23)cc1`: the TGI with UO-31 renal, in the assay on OVCAR-4 ovarian, with ACHN renal, with HCC-2998 colon, in the assay with HL-60(TB) leukemia and in the assay on 786-0 renal was above 100 µM in each case. Moreover, the TGI in the assay on HOP-62 NSCLC, with RXF 393 renal, in the assay with SN12C renal and in the assay with DU-145 prostate was above 100 µM in each case.

For `CCOC(=O)C(=[N+]=[N-])C(=O)Nc1nn2nnnc2c2ccccc12`, the TGI with UO-31 renal, in the assay with OVCAR-4 ovarian, in the assay on ACHN renal, in the assay with HCC-2998 colon, in the assay on HL-60(TB) leukemia and in the assay on 786-0 renal was above 100 µM in each case. The TGI with HOP-62 NSCLC, in the assay on RXF 393 renal, in the assay with SN12C renal and with DU-145 prostate was above 100 µM in each case.
